We go through two compounds from patent US9108930B2, “N1- and N2-carbamoyl-1,2,3-triazole serine hydrolase inhibitors and methods” (The Scripps Research Institute, priority 2011, dated 2015).

Values joined by “and” are separate entries in the source; they are usually repeats but may differ in a detail not shown here. Equal values may be shown once.

Test [1] deals with T1, APEH (Mus musculus, UniProt Q8R146).
T1 sequence (Q8R146 1-732): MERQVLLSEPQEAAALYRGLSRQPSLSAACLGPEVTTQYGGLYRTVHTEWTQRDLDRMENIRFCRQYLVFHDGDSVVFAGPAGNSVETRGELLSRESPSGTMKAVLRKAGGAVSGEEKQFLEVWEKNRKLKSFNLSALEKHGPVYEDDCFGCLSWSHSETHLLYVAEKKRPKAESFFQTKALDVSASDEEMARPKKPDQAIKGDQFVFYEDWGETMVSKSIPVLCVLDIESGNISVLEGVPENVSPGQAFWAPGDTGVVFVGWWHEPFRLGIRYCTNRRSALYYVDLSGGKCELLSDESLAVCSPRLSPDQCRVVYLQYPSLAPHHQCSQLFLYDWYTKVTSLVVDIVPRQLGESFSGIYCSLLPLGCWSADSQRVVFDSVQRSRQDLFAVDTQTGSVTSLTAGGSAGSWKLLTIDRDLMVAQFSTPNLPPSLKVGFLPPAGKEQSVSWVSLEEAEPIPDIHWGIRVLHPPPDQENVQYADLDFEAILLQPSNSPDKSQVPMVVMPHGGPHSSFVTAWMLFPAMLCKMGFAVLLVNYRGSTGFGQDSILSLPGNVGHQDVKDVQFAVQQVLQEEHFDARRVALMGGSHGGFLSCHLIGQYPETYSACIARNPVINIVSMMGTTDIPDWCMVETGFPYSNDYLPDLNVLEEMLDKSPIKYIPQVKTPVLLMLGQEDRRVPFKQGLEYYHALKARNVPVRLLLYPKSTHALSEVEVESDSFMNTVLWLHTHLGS
The test can be described thus: Fluorogenic APEH substrate assay on brain proteomes of treated mice. It is filed as in vivo. To be noted: 0.4 mg/kg; brain proteome. The protocol:
APEH activity assay was performed using fluorogenic substrate N-Acetyl-L-alanine p-nitroanilide.
Soluble brain proteomes (100 μL of 1 mg/mL protein) from AA74-1 (or vehicle)-injected mice were treated in a 96-well plate with N-acetyl-L-alanine 4-nitroanilide (100 μM final concentration) and the samples were incubated for 2 h at 37° C. Relative absorbance was measured with a plate reader at […]. Inhibition curves were generated using PRISM® software (GraphPad). Calculated values represent means±s.e.m for three independent experiments.

The target of test [2] is T1, APEH. The experiment in a line: ABPP-SILAC in living mouse T-cells. To be noted: 3 nM inhibitor, 4 h.
For test [3], the target named is T1, APEH. The experiment in a line: In situ inhibition in cultured mouse T-cells, gel-based competitive ABPP. It is filed as cell-based. The following applies: 4 h at 37° C.; read-out: potency of APEH inactivation in cultured T-cells.
Test [4] deals with T2, PREPL (Mus musculus, UniProt Q8C167).
T2 construct: from tissue; host or cells: mouse brain
T2 sequence (Q8C167 whole entry): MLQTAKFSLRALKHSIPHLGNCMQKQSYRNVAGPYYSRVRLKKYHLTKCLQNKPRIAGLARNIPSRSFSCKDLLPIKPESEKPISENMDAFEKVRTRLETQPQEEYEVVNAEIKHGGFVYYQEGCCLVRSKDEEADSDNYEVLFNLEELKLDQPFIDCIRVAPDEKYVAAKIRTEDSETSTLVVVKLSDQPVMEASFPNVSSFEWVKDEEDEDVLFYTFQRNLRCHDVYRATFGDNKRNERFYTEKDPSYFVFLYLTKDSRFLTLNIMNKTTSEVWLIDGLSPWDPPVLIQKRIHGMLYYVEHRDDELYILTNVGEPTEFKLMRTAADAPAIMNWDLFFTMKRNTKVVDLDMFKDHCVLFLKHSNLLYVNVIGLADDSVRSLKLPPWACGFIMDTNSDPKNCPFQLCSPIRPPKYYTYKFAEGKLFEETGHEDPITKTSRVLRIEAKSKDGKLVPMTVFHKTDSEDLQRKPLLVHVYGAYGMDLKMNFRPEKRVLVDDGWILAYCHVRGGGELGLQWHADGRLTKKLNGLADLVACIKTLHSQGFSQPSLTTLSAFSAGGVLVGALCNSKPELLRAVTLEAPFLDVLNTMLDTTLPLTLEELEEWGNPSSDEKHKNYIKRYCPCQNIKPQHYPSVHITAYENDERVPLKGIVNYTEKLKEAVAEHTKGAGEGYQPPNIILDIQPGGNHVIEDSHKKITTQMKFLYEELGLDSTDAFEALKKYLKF
The experiment in a line: ABPP-SILAM of brain tissue from treated mice. Format: in vivo. The following applies: may not represent actual changes. The procedure: (§1) The potency and selectivity of 1,2,3-triazole ureas in vivo also was investigated. Mice were treated with the APEH inhibitor AA74-1 at various doses (0.2-1.6 mg/kg; PEG300 or 18:1:1 saline/ethanol/emulphor intraperitoneally) and sacrificed after 4 h. Brains and hearts were removed, homogenized, and analyzed by gel-based competitive ABPP. […] Finally, the possibility of extending ABPP-SILAC for the characterization of inhibitor selectivity in vivo was explored by taking advantage of recently described protocols for stable isotope labeling in mammals (SILAM). In this approach, brain tissues from vehicle- and AA74-1-treated mice were separately mixed with equivalent amounts of brain tissue from ‘heavy’ amino acid-fed mice, and the samples were then labeled with FP-biotin, enriched by avidin chromatography, analyzed by LC-MS, and SH activities quantified by measuring the ratio-of-ratios for observed peptide signals. […] The ratio-of-ratio signals for APEH indicated greater than 90% inhibition of this enzyme in AA74-1-treated animals (FIG. 5b, top), consistent with average spectral count values (14 and 1 spectral counts for APEH in vehicle-treated versus AA74-1-treated mice, respectively; FIG. 5b, bottom). […] ACHE, an enzyme that is targeted by other reported NHU inhibitors, was not inhibited by AA74-1 in either mouse brain (FIG. 5b) or transfected cell (FIG. 16) proteomes.
(§2) C57BL6 mice were labeled with ^15N. Briefly, each mouse was fed an ^15N-labeled protein diet starting immediately after weaning which continued for the next 10 weeks. The ^15N-labeled diet was generated by combining spirulina biomass ^15N-labeled (Cambridge Isotopes) with protein-free diet powder (Harlan TD 93328) in a 1:2 (wt/wt) ratio and an appropriate amount of H2O to generate a dough. This dough is then cut into 2-cm thick pellets and dried at 60° C. for 2-4 h and then at 35° C. overnight using an Excalibur food dehydrator. These ^15N-labeled food pellets are then used to replace normal chow. […] Brains were determined to be 95% labeled by mass spectrometry with ^15N and used for quantitative analysis. […]

For test [5], the target named is T1, APEH. The test can be described thus: ABPP-SILAM of brain tissue from treated mice. It is filed as in vivo. The following applies: treated mice (vehicle 14). The protocol: as §1, §2
Test [6] addresses T3, ACHE (Mus musculus, UniProt P21836).
T3 construct: from tissue; host or cells: mouse brain
The test can be described thus: ABPP-SILAM of brain tissue from treated mice. The following applies: mouse brain proteome of treated mice. Format: in vivo. The procedure:
as §1, §2

The target of test [7] is T4, ABHD6 (Mus musculus, UniProt Q8R2Y0).
T4 sequence (Q8R2Y0 1-336): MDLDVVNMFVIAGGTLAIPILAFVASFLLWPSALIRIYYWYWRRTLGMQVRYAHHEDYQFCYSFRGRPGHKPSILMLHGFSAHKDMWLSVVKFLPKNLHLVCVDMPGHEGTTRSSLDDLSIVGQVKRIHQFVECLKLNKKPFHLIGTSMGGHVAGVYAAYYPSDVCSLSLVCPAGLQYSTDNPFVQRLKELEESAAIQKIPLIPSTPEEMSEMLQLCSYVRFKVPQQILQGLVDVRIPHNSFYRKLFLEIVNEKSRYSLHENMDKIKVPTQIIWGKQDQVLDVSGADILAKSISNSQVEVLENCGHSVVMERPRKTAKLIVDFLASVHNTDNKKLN
The experiment in a line: ABPP-SILAC in Neuro2A cells. To be noted: about 4 hours; 25 nM.

T3 sequence (P21836 32-614): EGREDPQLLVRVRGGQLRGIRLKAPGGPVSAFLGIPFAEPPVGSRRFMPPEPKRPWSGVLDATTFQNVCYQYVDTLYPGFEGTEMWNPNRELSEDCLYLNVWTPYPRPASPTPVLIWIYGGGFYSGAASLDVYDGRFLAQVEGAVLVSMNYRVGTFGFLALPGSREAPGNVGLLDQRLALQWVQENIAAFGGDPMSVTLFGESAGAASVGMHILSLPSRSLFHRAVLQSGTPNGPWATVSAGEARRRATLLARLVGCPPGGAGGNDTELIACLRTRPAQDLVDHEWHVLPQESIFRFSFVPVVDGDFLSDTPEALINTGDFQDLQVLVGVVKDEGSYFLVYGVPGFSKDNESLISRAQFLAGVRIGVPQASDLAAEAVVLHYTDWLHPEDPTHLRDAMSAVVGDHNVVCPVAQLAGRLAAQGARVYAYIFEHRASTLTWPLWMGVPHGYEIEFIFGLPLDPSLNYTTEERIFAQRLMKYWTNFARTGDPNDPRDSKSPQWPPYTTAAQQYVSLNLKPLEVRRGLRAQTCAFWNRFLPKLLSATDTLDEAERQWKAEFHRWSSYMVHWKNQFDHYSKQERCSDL

In the case of `CC(C)CC(O)(CC(C)C)c1cnn(C(=O)N2CCCC2)n1` [AA74-1], the “APEH inhibition by substrate assay” value in test [1] is “Complete inhibition of APEH”. For the same compound, the APEH activity blocked in test [2] was > 95% and > 97%. The IC50 in test [3] is 0.14 to 0.17 nM. In addition, the “partial inhibition of PREPL suggested by ratio-of-ratio signals” value in test [4] was 50-60%. Further, the “average spectral count for APEH” value in test [5] was 1 spectral counts. For the same compound, the “ACHE inhibition in mouse brain” value in test [6] was “not inhibited”.

Take `COc1ccc(-c2ccc(-c3cn(C(=O)N4CCCCC4c4ccccc4)nn3)cc2)cc1` (stereo not shown) [KT195]: in test [7], the ABHD6 activity blocked is on record as > 90%.
